The record followed here is US9889234B2, “Scaffold for hard tissue regeneration containing active ingredient for treating osteoporosis and preparing method thereof” (KOREA INSTITUTE OF MACHINERY AND MATERIALS, priority 2014, dated 2018).

Molecules are shown by their SMILES.

The nature of data set [1]: Solubility of the active ingredient. The class given is physicochemical.
Data set [2] is described as follows: Drug releasing characteristics of the active ingredient from the scaffold. It counts as physicochemical. As for the experimental part:
To evaluate the drug releasing characteristics of the active ingredient included in the scaffold, the scaffold for hard tissue regeneration (containing Quercetein by 200 μm/scaffold) prepared in Example 1 was dipped in body fluid like PBS (phosphate buffered saline) or de-ionized water in a 37° C. shaker. Sampling of the solution was performed hourly and the concentration of Quercetein released in the solution was measured. Quercetein is a hydrophobic material, so that it is very difficult to detect the concentration by dissolving. To evaluate the drug releasing activity in a solution where the active material is dissolved, the experiment was equally performed with ethanol, the dissolving solvent.
The following experiment was performed by the same manner as described in Example <1-1> except that the scaffold for hard tissue regeneration (containing Genistein by 200 μm/scaffold) prepared in Example 3 instead of the scaffold for hard tissue regeneration (containing Quercetein by 200 μm/scaffold) prepared in Example 1.

Data set [3] deals with RAW 264.7 cells, the multinuclear osteoclasts treated with RANKL. Briefly: Osteoclast proliferation activity, drug in medium. The class given is cell-based. The settings on record: for inhibition of osteoclast proliferation, ranking among Quercetein, Genistein, Alendronate: same dose; for proliferation of osteoclasts: compared with the case not treated, 1 μM or 200 μM.
The subject of data set [4] is MC3T3-E1 cells. Briefly: Osteoblast proliferation activity, MTS assay, drug in medium. It counts as cell-based. As for the experimental part:
MC3T3-E1 cells (MC3T3-E1 Subclone 4, ATCC CRL-2593, obtained from ATCC) were cultured in α-MEM (α-Minimum Essential Medium, GIBCO) supplemented with FBS (Fetal Bovine Serum) and penicillin/streptomycin under the standard culture condition (37° C., 5% CO2). When the cells were grown to 70˜80% confluency, the cells were trypsinized. Then, the cells were collected by centrifugation.
The collected MC3T3-E1 cells were seeded at the density of 1.0×10^4 cells, followed by standard culture for 2 hours. The medium containing Quercetein at the concentrations of 0, 1, 10, 50, 100, and 200 μm was added thereto.
To observe the metabolic activity of the seeded MC3T3-E1 cells, colorimetric 3-(4,5-dimethylthiazole-2-yl)-5-(3-carboxymethoxyphenol)-2-(4-sulfophenyl)-2H-tetrazolium (MTS) assay (CellTiter 96® AQeous One solution Cell Proliferation Assay, Promega) was performed according to the manufacturer's instruction. The MTS tetrazolium compound is converted biologically and dissolved in the tissue culture medium by the cells into a formazan product displaying highest absorbance at 490 nm.
The following experiment was performed by the same manner as described in Experimental Example <2-1> except that Genistein was used instead of Quercetein.

Setting [5] is: determined from the proliferation of osteoblasts.

Turning to `O=c1c(O)c(-c2ccc(O)c(O)c2)oc2cc(O)cc(O)c12` [Quercetein], the “solubility in an aqueous solution” value in data set [1] is “low”. Further, the Quercetein released is reported as 100% in data set [2] (from scaffold of Example 1 (200 μm/scaffold), ethanol, 37° C. shaker, over 40 days, without early acute release); 10% in data set [2] (from scaffold of Example 1, de-ionized water and PBS, 37° C., early 20 days); “approximately 50%” in data set [2] (from scaffold of Example 1, de-ionized water and PBS, 37° C., over 68 days); 50% in data set [2] (from scaffold, de-ionized water and PBS, over 60 days). The “inhibition of osteoclast proliferation, ranking among Quercetein, Genistein, Alendronate” value in data set [3] (200 μM) is “most excellent in inhibiting the proliferation of osteoclasts”. For the same compound, in data set [3], the proliferation of osteoclasts entry was “significantly inhibited”. Also, the proliferation of osteoblasts entry in data set [4] (1 μM, day 3 and day 5) is on record as “promoted the proliferation of osteoblasts”; in data set [4] (concentration increased from 1 to 200 μM, vs non-treated group, day 1, 3, 5), “increased Quercetein dose-dependently”. In addition, the “effect on the proliferation of osteoblasts” value in data set [4] (200 μM, day 3 and day 5, comparison with Alendronate) was “increased the proliferation significantly”. The “preferable concentration (osteoblast proliferation)” value in data set [4] (setting [5]) is reported as 1˜200 μM.
With `O=c1c(-c2ccc(O)cc2)coc2cc(O)cc(O)c12` [Genistein], the “solubility in an aqueous solution” value in data set [1] is listed as “low”. Besides, the “solubility in ethanol compared with that of Quercetein” value in data set [1] (ethanol, from comparison of release results) is “even higher”. Further, the Genistein released in data set [2] (from scaffold of Example 3 (200 μm/scaffold), ethanol, early 5 days) was 100%; in data set [2] (from scaffold of Example 3, de-ionized water and PBS, over 55 days, without early acute release), 60%. Further, in data set [3] (1 μM), the “inhibition of osteoclast proliferation, ranking among Quercetein, Genistein, Alendronate” value is given as “most excellent in inhibiting the proliferation of osteoclasts”. For the same compound, the proliferation of osteoclasts entry in data set [3] was “significantly inhibited”. Also, the proliferation of osteoblasts entry is recorded as “promoted the proliferation of osteoblasts” in data set [4] (1 μM, day 3 and day 5); “increased” in data set [4] (concentration increased from 1 to 10 μM, vs non-treated group); “rather inhibited” in data set [4] (concentration over 10 μM). Further, in data set [4] (1 μM, day 3 and day 5), the “promoting effect on osteoblast proliferation relative to Quercetein” value was “greater than that of Quercetein”. In data set [4] (setting [5]), the “most preferable concentration (osteoblast proliferation)” value was 1 µM. Further, the “preferable concentration (osteoblast proliferation)” value in data set [4] (setting [5]) is recorded as 1˜10 μM.
